Source: US9308214B2, “Method for moderately increasing the proton conductivity of biological membranes with the aid of mitochondria-targeted delocalized cations” (MITOTECH S.A., priority 2008, dated 2016)

Legend:
[1] = Protonophore activity on black membrane model (diffusion potential on lipid bilayer); details: C12-TPP 1 μM in both compartments; ΔpH=1 by KOH; palmitic acid 1 mg/ml in membrane vs absent; pH 7.5
Experimental: To test penetrating ability of mitochondria-targeted compounds of structure (I), a method based on the ability of ions to penetrate through the bilayer phospholipid membrane moving along concentration gradient was used. The two chambers filled with an aqueous solution are separated by the bilayer membrane, the compound tested is added to one of the chambers. If a charged compound is capable of penetrating through the bilayer membrane, fast diffusion of the compound from the chamber with its high concentration to the chamber with its low concentration occurs, thus difference in the potentials is formed on the membrane. For ions carrying one charge and capable of passive penetrating through the membrane, the 10-fold concentration gradient allows to produce the potential of 60 mV (according to the Nernst equation).
This method was used in various studies on the ability of ions to penetrate through a bilipid membrane and is described in Starkov, et al. (1997) Biochem. Biophys. Acta, 1318:159-172. With this method, C12-TPP (compound of structure (I)) was tested.
Experiments were carried out in a Teflon cuvette having two compartments, and in a 0.6-mm hole between the two compartments the membrane was formed. Medium contained 50 mM Tris-HCl, 100 mM KCl, pH=7.5. ΔpH=1 was created by adding KOH to one of the cuvette compartments. […]

[2] = test system: yeast Saccharomyces cerevisiae; experiment: Programmed death in yeast induced by amiodarone (colony survival); type: cell-based; details: 80 μM amiodarone; for survival of yeast cells (protective effect, in words): TPP tested from 100 nM to 400 nM; for survival of yeast cells: 1 hr at 30° C., survival without compound 2 percent, 3 independent experiments, p below 0.05
Excerpt: Amiodarone (a calcium channel blocker) causes the death of the yeast Saccharomyces cerevisiae which by a number of features resembles apoptosis in higher eukaryotes. In the cells, amiodarone induces activation of a cascade of events leading to formation of reactive oxygen species and subsequent cell death. […] A source of formation of reactive oxygen species induced by amiodarone is a hyperpolarized mitochondrium.
The following compounds of structure (I) (SKQ1, SKQ3, and C12TPP) were selected for this study. […] Then a compound of structure (I) or mock and 80 μM amiodarone were added to the cell suspension. Cells were incubated for 1 hr at 30° C. and afterwards transferred to solid YPD medium containing 2% bactoagar. The number of colonies was counted after 2 days of incubation on solid medium. 100% survival corresponds to the number of colonies from zero time-point transferred to solid medium prior to addition of amiodarone.

[3] = Fluorescence correlation spectroscopy of SkQR1 micelles in aqueous solution with fatty acid (stearate); type: physicochemical
Experimental: Fluorescence correlation spectroscopy (FCS) is often used to study micellization of surfactants. In one report (Lu, et al. (2006) Analytica Chimica Acta, 556:216-225), R18, i.e., rhodamine with covalently attached fat tail was used as a marker. R18 itself forms large and poorly fluorescent aggregates in aqueous solution resulting in a small number of particles in the confocal volume (N) and a small fluorescence signal. When a detergent was added at a concentration above its CMC (the critical micelle concentration), an increase in total fluorescence and a significant increase in the number of particles N occurred. […] That was associated with lower diffusion coefficient of detergent micelles as compared to the R18 aggregates.
FIGS. 6A and B show the effect of a fatty acid (stearate) on the autocorrelation function of SkQR1 in water. […] For example, the number of particles in the confocal volume sharply increases. The constant of micelle formation for stearate is about 0.3 mM. In this case, fragmentation of the SkQR1 aggregates induced by such low concentrations of the fatty acid occurs. This fragmentation decreases the degree of the self-quenching of fluorescence that increases the total signal. […] The constant of micelle formation for anionic surfactants decreases under the influence of cationic surfactants or polymers. In that case, the total fluorescence signal was 141 kHz. […] The total fluorescence signal was 63 kHz that points to the beginning of the self-quenching of the dye in the micelles.
The fluctuations of the fluorescence signal in this case have no diffusion component yet. This process may be the output/input of SkQR1 molecules from water into micelles that can lead to fluctuations of the fluorescence due to the different quantum yield of fluorescence of the dye in polar and non-polar environments (Zettl, et al. (2005) J. Phys. Chem. B. 109:13397-13401).

SMILES: CCCCCCCCCCCC[P+](c1ccccc1)(c1ccccc1)c1ccccc1 [C12-TPP, dodecyl triphenylphosphonium]
- diffusion potential (ΔΨ) in response to ΔpH creation [1]: presence of a fatty acid in the membrane facilitates an increase in diffusion potential
- survival of yeast cells (protective effect, in words) [2]: even more effective than the tested antioxidants
- optimum concentration of the protective effect ([2]; pronounced concentration dependence): 200 nM

SMILES: COc1c(O)c(C)c(CCCCCCCCCC[P+](c2ccccc2)(c2ccccc2)c2ccccc2)c(O)c1OC [MitoQ]
- survival of yeast cells [2]: 8%

SMILES: Cc1c(O)cc(CCCCCCCCCC[P+](c2ccccc2)(c2ccccc2)c2ccccc2)c(O)c1C [SkQ1]
- survival of yeast cells (protective effect, in words) [2]: significantly increase the survival

SMILES: Cc1c(C)c(O)c(CCCCCCCCCC[P+](c2ccccc2)(c2ccccc2)c2ccccc2)c(C)c1O [SkQ3]
- survival of yeast cells (protective effect, in words) [2]: significantly increase the survival

SMILES: CC/N=c1/cc2oc3cc(NCC)c(C)cc3c(-c3ccccc3C(=O)OCCCCCCCCCCC3=CC(=O)C(C)=C(C)C3=O)c-2cc1C [SkQR1]
- fluorescence signal from the sample ([3]; 1.5 μg/ml (about 5 μM) stearate): 67 kHz
- aggregation state in aqueous solution ([3]; aggregates degrade in presence of low concentrations of fatty acids): forms micelles (or large aggregates) in aqueous solution
- total fluorescence signal ([3]; further increase in concentration of stearate (above 50 μM)): 63 kHz
- fluorescence signal from the sample ([3]; in water, absence of stearate): 44 kHz
- total fluorescence signal ([3]; stearate up to 50 μM): 141 kHz
- survival of yeast cells [2]: 7%
